According to publication PMC10874388, “Cyclic peptides discriminate BCL-2 and its clinical mutants from BCL-XL by engaging a single-residue discrepancy” (Nature Communications, 2024):
Where “and” joins values, the source holds several entries; their conditions need not be identical. Equal entries are not always repeated.

Experiments:
Assay type in all cases: cell-based
Jurkat cells = test: Cell viability assay (CellTiter-Glo), Jurkat
Protocol: (§1) The cell lines Jurkat (TIB-152), El4 (TIB-39), Daudi (ccl-213), RS4:11 (crl-1873), A549 (ccl-185), HepG2 (hb-8065) and PANC-1 (crl-1469) were purchased from ATCC (American Type Culture Collection), and MGC-803 (C6582) was purchased from Beyotime (https://www.beyotime.com/product/C6582.htm). […] Daudi and RS4:11 cells were cultured in RPMI-1640 medium (HyClone, SH30809.01) and 10% FBS (Gibco, 10099-141), whereas HepG2, MGC-803 and PANC-1 cells were cultured in MDEM (HyClone, SH30243.01). Cells were maintained at 37 °C under a humidified, 5% (v/v) CO2-containing atmosphere.
(§2) Cell viability was measured using CellTiter-Glo® 2.0 Reagent (Promega, G9242). […] After different inhibitors were added into serum-free medium and cultured for 4 h (RS4:11 for 6 h), FBS were supplemented to 10% and then incubated totally for 24 h or 48 h. Finally, the IC50 values were calculated based on measurements using a microplate reader (Thermo, Varioskan LUX). Statistical analysis was performed using software GraphPad Prism 7.0.

Daudi cells = test: Cell viability assay (CellTiter-Glo), Daudi; conditions: Daudi
Protocol: as §1, §2

RS4:11 cells = test: Cell viability assay (CellTiter-Glo), RS4:11; conditions: single wells; for raw luminescence reading / inhibition rate: RS4:11
Protocol: as §1, §2

CC1(C)CCC(c2ccc(Cl)cc2)=C(CN2CCN(c3ccc(C(=O)NS(=O)(=O)c4ccc(N[C@H](CCN5CCOCC5)CSc5ccccc5)c(S(=O)(=O)C(F)(F)F)c4)cc3)CC2)C1 [ABT263]
inhibition relative to 0 uM control, replicates (Jurkat cells; 0.375 uM): 36% and 32% (2×) and 29% and 31% | raw viability signal, replicates (Jurkat cells; 0.375 uM): 1239000 and 1266000 and 1356000 and 1351000 and 1403000 and 1379000 | inhibition relative to 0 uM control, replicates (Jurkat cells; 0.75 uM): 33% and 36% and 41% | raw viability signal, replicates (Jurkat cells; 0.75 uM): 1132000 and 1330000 and 1241000 and 1225000 and 1265000 and 1179000 | inhibition relative to 0 uM control, replicates (Jurkat cells; 1.5 uM): 44% and 41% and 40% and 37% and 34% | raw viability signal, replicates (Jurkat cells; 1.5 uM): 1078000 and 1124000 and 1172000 and 1189000 and 1263000 and 1304000 | inhibition relative to 0 uM control, replicates (Jurkat cells; 3 uM): 44% and 39% and 40% | raw viability signal, replicates (Jurkat cells; 3 uM): 1152000 and 1105000 and 1149000 and 1214000 and 1192000 and 1143000 | inhibition relative to 0 uM control, replicates (Jurkat cells; 6 uM): 47% and 44% and 41% | raw viability signal, replicates (Jurkat cells; 6 uM): 1071000 and 1059000 and 1122000 and 1132000 and 1181000 and 1149000 | inhibition relative to 0 uM control, replicates (Jurkat cells; 12 uM): 60% and 56% and 54% and 53% | raw viability signal, replicates (Jurkat cells; 12 uM): 855500 and 799300 and 877600 and 917700 and 934900 and 865100 | inhibition at 0.375 µM (Jurkat cells; Homo sapiens, 0.375 uM, read-out: inhibition relative to 0 uM control, replicates): 38% | inhibition at 0.75 µM (Jurkat cells; Homo sapiens, 0.75 uM, read-out: inhibition relative to 0 uM control, replicates): 43% | inhibition at 1.5 µM (Jurkat cells; Homo sapiens, 1.5 uM, read-out: inhibition relative to 0 uM control, replicates): 46% | inhibition at 3 µM (Jurkat cells; Homo sapiens, 3 uM, read-out: inhibition relative to 0 uM control, replicates): 42% | inhibition at 6 µM (Jurkat cells; Homo sapiens, 6 uM, read-out: inhibition relative to 0 uM control, replicates): 46% | inhibition at 12 µM (Jurkat cells; Homo sapiens, 12 uM, read-out: inhibition relative to 0 uM control, replicates): 57% | inhibition relative to 0 uM control, replicates (Daudi cells; 0.78125 uM): -13% and 6.58% and 11% and 14% and -14% and 9% | raw viability signal, replicates (Daudi cells; 0.78125 uM): 1671 and 1386 and 1318 and 1281 and 1698 and 1345 | inhibition relative to 0 uM control, replicates (Daudi cells; 1.5625 uM): 12% and 28% and 13% and 5% and 2.67% and -0.427% | raw viability signal, replicates (Daudi cells; 1.5625 uM): 1303 and 1062 and 1294 and 1413 and 1444 and 1490 | inhibition relative to 0 uM control, replicates (Daudi cells; 3.125 uM): 25% and 4% and 5% and 17% and 29% and 48% | raw viability signal, replicates (Daudi cells; 3.125 uM): 1117 and 1426 and 1406 and 1238 and 1059 and 765.3 | inhibition relative to 0 uM control, replicates (Daudi cells; 6.25 uM): 51% and 31% and 24% and 23% and 20% and 40% | raw viability signal, replicates (Daudi cells; 6.25 uM): 729.7 and 1018 and 1129 and 1147 and 1185 and 883.7 | inhibition relative to 0 uM control, replicates (Daudi cells; 12.5 uM): 38% and 61% and 46% and 56% and 44% and 48% | raw viability signal, replicates (Daudi cells; 12.5 uM): 920.2 and 574.4 and 802.0 and 653.5 and 827.6 and 767.5 | inhibition relative to 0 uM control, replicates (Daudi cells; 25 uM): 71% and 70% and 63% and 61% (2×) and 82% | raw viability signal, replicates (Daudi cells; 25 uM): 436.2 and 441.9 and 545.0 and 582.0 and 581.4 and 260.8 | inhibition at 0.000488281 µM (RS4:11 cells; Homo sapiens, RS4-11, RS4:11, 0.488281 nM, read-out: inhibition rate): 67% | inhibition at 0.000976562 µM (RS4:11 cells; Homo sapiens, RS4-11, RS4:11, 0.976562 nM, read-out: inhibition rate): 81% | inhibition at 0.00195312 µM (RS4:11 cells; Homo sapiens, RS4-11, RS4:11, 1.95312 nM, read-out: inhibition rate): 97% | inhibition at 0.00390625 µM (RS4:11 cells; Homo sapiens, RS4-11, RS4:11, 3.90625 nM, read-out: inhibition rate): 99% | inhibition at 0.0078125 µM (RS4:11 cells; Homo sapiens, RS4-11, RS4:11, 7.8125 nM, read-out: inhibition rate): 100% | inhibition at 0.015625 µM (RS4:11 cells; Homo sapiens, RS4-11, RS4:11, 15.625 nM, read-out: inhibition rate): 100% | inhibition at 0.03125 µM (RS4:11 cells; Homo sapiens, RS4-11, RS4:11, 31.25 nM, read-out: inhibition rate): 100% | inhibition at 0.0625 µM (RS4:11 cells; Homo sapiens, RS4-11, RS4:11, 62.5 nM, read-out: inhibition rate): 100% | inhibition at 0.125 µM (RS4:11 cells; Homo sapiens, RS4-11, RS4:11, 125 nM, read-out: inhibition rate): 100% | inhibition at 0.25 µM (RS4:11 cells; Homo sapiens, RS4-11, RS4:11, 250 nM, read-out: inhibition rate): 100% | inhibition at 0.5 µM (RS4:11 cells; Homo sapiens, RS4-11, RS4:11, 500 nM, read-out: inhibition rate): 100% | inhibition at 1 µM (RS4:11 cells; Homo sapiens, RS4-11, RS4:11, 1000 nM, read-out: inhibition rate): 100% | raw luminescence reading (RS4:11 cells; 0.244141 nM): 319400 and 358600 and 385500 and 388700 and 346000 and 423800 | raw luminescence reading (RS4:11 cells; 0.488281 nM): 145900 and 162000 and 168900 and 156800 and 153400 and 152700 | inhibition rate (RS4:11 cells; 0.488281 nM, 0.000488281 µM): 63% and 62% and 65% and 66% | raw luminescence reading (RS4:11 cells; 0.976562 nM): 85360 and 92040 and 97200 and 90740 and 85390 and 85400 | inhibition rate (RS4:11 cells; 0.976562 nM, 0.000976562 µM): 79% and 78% and 80% | raw luminescence reading (RS4:11 cells; 1.95312 nM): 14920 and 16290 and 16450 and 15190 and 15570 and 13650 | inhibition rate (RS4:11 cells; 1.95312 nM, 0.00195312 µM): 96% | raw luminescence reading (RS4:11 cells; 3.90625 nM): 2969 and 3143 and 3110 and 2929 and 2545 and 2763 | raw luminescence reading (RS4:11 cells; 7.8125 nM): 1394 and 1471 and 1609 and 1459 and 1530 and 1294 | raw luminescence reading (RS4:11 cells; 15.625 nM): 649.5 and 693.0 and 701.2 and 740.3 and 855.6 and 501.0 | raw luminescence reading (RS4:11 cells; 31.25 nM): 598.7 and 870.6 and 1121 and 921.5 and 938.2 and 1010 | raw luminescence reading (RS4:11 cells; 62.5 nM): 361.9 and 494.9 and 587.5 and 446.2 and 364.9 and 488.9 | raw luminescence reading (RS4:11 cells; 125 nM): 503.8 and 401.2 and 517.1 and 644.2 and 454.2 and 588.4 | raw luminescence reading (RS4:11 cells; 250 nM): 1061 and 1147 and 1486 and 1266 and 1158 and 1293 | raw luminescence reading (RS4:11 cells; 500 nM): 507.0 and 488.7 and 440.9 and 484.8 and 485.1 and 504.0 | raw luminescence reading (RS4:11 cells; 1000 nM): 274.1 and 376.6 and 535.0 and 446.7 and 313.0 and 467.2
